Measured values as given in patent US8822486B2, “Spiropiperidine compounds” (Eli Lilly and Company, priority 2009, dated 2014).

Legend:
Assay type in all cases: cell-based
Conditions in all cases: examined up to 10 μM, luciferase reporter, 24 hours
PPARγ = target: T1, PPARγ (Homo sapiens, UniProt P37231); experiment: PPARγ reporter functional assay in CV1 cells
T1 sequence (P37231 1-505): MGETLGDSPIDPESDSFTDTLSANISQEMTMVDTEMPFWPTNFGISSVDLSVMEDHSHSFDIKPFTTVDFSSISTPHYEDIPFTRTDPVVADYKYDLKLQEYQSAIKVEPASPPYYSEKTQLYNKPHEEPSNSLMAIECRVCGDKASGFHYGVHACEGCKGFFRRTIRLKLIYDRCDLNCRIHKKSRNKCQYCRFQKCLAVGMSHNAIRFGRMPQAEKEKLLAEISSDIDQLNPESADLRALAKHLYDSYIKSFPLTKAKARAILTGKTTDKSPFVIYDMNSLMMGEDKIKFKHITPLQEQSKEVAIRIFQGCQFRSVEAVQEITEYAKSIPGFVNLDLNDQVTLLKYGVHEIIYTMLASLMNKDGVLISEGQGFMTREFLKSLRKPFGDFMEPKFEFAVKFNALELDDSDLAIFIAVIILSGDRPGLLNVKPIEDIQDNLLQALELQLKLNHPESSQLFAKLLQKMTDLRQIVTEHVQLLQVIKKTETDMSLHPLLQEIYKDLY
T1 sequence (P19793 1-462 partner): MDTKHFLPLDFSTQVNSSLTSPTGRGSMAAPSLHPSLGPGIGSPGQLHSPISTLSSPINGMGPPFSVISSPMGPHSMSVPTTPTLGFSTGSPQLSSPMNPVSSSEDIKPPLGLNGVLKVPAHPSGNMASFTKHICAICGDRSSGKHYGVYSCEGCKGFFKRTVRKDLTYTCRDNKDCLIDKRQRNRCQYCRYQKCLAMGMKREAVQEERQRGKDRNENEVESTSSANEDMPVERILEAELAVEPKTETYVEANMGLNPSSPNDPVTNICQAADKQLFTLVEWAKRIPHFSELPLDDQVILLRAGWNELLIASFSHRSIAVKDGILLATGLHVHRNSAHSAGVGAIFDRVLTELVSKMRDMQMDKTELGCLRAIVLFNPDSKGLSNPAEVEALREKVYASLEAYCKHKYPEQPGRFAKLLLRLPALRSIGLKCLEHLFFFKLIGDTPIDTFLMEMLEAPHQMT
Excerpt: (§1) Gal4 PPARα, Gal4 PPARδ, and PPARγ reporter functional assays are also used to monitor the selectivity of exemplified compounds. CV1 cells, which are derived from the renal tissue of an African green monkey, are transfected with various receptor and reporter plasmids using Fugene. For the Gal4 PPARα and PPARδ assays, a reporter plasmid containing five tandem copies of the yeast transcription protein Gal4 response element, cloned upstream of a firefly luciferase gene driven by the major late promoter of adenovirus, is transfected together with a Simian Virus 40 (SV40) driven plasmid constitutively expressing a hybrid protein containing the Gal4 DNA binding domain (DBD), and either the PPARα or PPARδ ligand binding. For the PPARγ assay, plasmids encoding PPARγ and RXRα, both driven by a cytomegalovirus (CMV) promoter are transfected together with a plasmid containing luciferase reporter cDNA driven by the TK promoter and a receptor response element (2×PPRE). Cells are transfected in T225 cm^2 cell culture flasks in DMEM media with 5% charcoal-stripped FBS. […] After 24 hours incubation with compounds, cells are lysed and luciferase activity is determined as a measure of receptor activation by luminescence. […] The maximum percent stimulation is determined versus maximum stimulation obtained with 10 μM of an appropriate PPAR agonist reference compound. […]

Gal4 PPARδ = target: T2, Gal4 PPARδ (Homo sapiens, UniProt Q03181); experiment: Gal4 PPARδ reporter functional assay in CV1 cells
T2 construct: expressed in transfected cells; host or cells: CV1 (African green monkey kidney)
T2 sequence (Q03181 211-439 limits assumed): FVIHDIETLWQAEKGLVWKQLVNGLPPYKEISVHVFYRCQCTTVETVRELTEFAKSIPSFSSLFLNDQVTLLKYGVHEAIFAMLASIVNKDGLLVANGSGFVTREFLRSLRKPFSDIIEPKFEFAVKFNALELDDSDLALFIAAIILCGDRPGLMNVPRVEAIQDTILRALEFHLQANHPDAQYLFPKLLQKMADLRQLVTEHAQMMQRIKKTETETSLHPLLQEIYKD
Excerpt: as §1

Gal4 PPARα = target: T3, Gal4 PPARα (Homo sapiens, UniProt Q07869); experiment: Gal4 PPARα reporter functional assay in CV1 cells
T3 construct: expressed in transfected cells; host or cells: CV1 (African green monkey kidney)
T3 sequence (Q07869 239-466 limits assumed): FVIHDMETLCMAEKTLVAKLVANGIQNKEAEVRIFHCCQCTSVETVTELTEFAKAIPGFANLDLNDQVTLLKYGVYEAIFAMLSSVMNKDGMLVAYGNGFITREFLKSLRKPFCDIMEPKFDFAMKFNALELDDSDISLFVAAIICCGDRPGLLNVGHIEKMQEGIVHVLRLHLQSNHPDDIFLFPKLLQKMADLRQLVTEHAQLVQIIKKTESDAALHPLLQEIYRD
Excerpt: as §1

CC#C[C@@H](CC(=O)O)c1ccc(OCc2ccc(CN3CCC4(C=Cc5ccccc54)CC3)s2)cc1 [Example 1, (3S)-3-[4-[[5-(Spiro[indene-1,4′-piperidine]-1′-ylmethyl)-2-thienyl]methoxy]phenyl]hex-4-ynoic acid]
No functional activation: functional activation of PPARγ (PPARγ) | functional activation of PPARδ (Gal4 PPARδ) | functional activation of PPARα (Gal4 PPARα)
